The first assay concerns NLRP3 (IL-1β secretion from THP-1 cells). Put plainly: IL-1β secretion assay in 384-well plates, PMA differentiated THP-1 cells, LPS and nigericin stimulation. The assay is classed as cell-based. The following applies: Homo sapiens, THP-1, read-out: Activity (µM). As for the experimental part: Compounds as provided herein were tested in the following assay. […] Freezing medium was made up of 90% FBS and 10% DMSO. THP-1 cells were removed from the liquid nitrogen and placed into a 37° C. water bath to thaw, until signs of ice dissipated. The cells were then added to 9 mL of warm cell culture medium and centrifuged for 5 minutes at 1000 rpm. The supernatant was discarded, and the cells were resuspended in new cell culture medium. The THP-1 cells were then split and cultured in the cell culture medium, being passaged every 2-3 days (5×10^5 cells/mL passaged every two days, 3×10^5 cells/mL passaged every three days). Cell density was maintained between 5×10^5-1.5×10^6 viable cells/mL.
PMA was dissolved in DMSO to make a stock solution at 5 mg/mL and stored in 10 µl aliquots at -20° C. for single use. PMA is added to normal growth medium. LPS was diluted with 1 mL of water solution to provide a 1 mg/mL stock solution and stored in 15 µl aliquots at -20° C. for single use. Nigericin is diluted in ice cold 100% ethanol to 5 mg/mL (6.7 mM) and stored in 75 µL aliquots at -20° C. for single use. […] The two control conditions used to qualify and normalize test compound dose-response curves were as follows: High Control = 25 ng/mL LPS, 5 µM Nigericin, 0.5% DMSO, Low Control = 25 ng/mL, LPS, 0.5% DMSO.
THP-1 cells were diluted to provide a suspension at a concentration of 1.0×10^6 cells/mL with the total volume of suspension required to enable the desired number of assay plates. The growth media was supplemented with PMA (5 ng/mL final concentration) and the cells were incubated at 37° C. under a humidified atmosphere of 5% CO2 for 40 h.
All media was carefully aspirated from each culture flask. The cells were washed carefully with 1x DPBS. The cells were then briefly digested with trypsin LE for 5 minutes at 23° C. and immediately resuspended in cell growth media. After resuspension, the cells were centrifuged at 1000 rpm for 3 minutes and the supernatant was discarded. The cells were resuspended in DPBS and once again centrifuged at 1000 rpm for 5 minutes. The supernatant was discarded and the cell pellet was resuspended in serum-free media supplemented with LPS (25 ng/mL final concentration) to enable the distribution of 30 K THP-1 cells within 45 µL of media into each well of 384-well PDL-coated plates. The 384-well plates were then incubated at 37° C. under a humidified atmosphere of 5% CO2 for 2 h. Following this period, test compounds were dispensed by Tecan across the desired concentration range with all wells normalized to a final 0.5 % DMSO concentration. The plates were then incubated at 37° C. under a humidified atmosphere of 5% CO2 for 1 h. Following this period, 5 µL of the […] nigericin stock solution was added to each of the appropriate wells and plates were centrifuged at 1000 rpm for 30 seconds. The plates were the immediately reintroduced to the incubator at 37° C. under a humidified atmosphere of 5% CO2 for 2 h. After this time, 35 µL/well of supernatant was collected and transferred into v-bottom plate and centrifuged at 1000 rpm for 1 minute. These supernatant aliquots were analyzed using an IL-Iβ detection kit as described below. If needed, the test samples could be snap frozen and stored at -80° C. until analyzed.
To prepare each ELISA plate, capture antibody (mAb Mt175) was diluted with PBS to a final concentration of 2 µg/mL and then 20 µL of this solution was added to each well of the ELISA plate. Each plate was allowed to incubate overnight at 4° C. The next day, the capture antibody solution was removed and discarded. […] Each ELISA plate was then allowed to incubate for 1 hour at 23° C. After this time, the blocking buffer was removed and discarded. Each ELISA plate was washed 4 times with PBST. During this time, the v-bottomed plates containing the supernatant aliquots from the assay run were centrifuged at 300 g for 5 minutes before transferring 15 µL/well of the supernatant sample to each ELISA plate. […]
For `COc1nn(CC(=O)Nc2ncc(F)cn2)c(=O)cc1-c1cc(F)cc(F)c1` [Example 57, 2-[4-(3,5-difluorophenyl)-3-methoxy-6-oxopyridazin-1-yl]-N-(5-fluoropyrimidin-2-yl)acetamide], the IC50 stood at 1.96 µM.

Still in this assay, the particulars now being: Homo sapiens; THP-1 cells, PMA 5 ng/mL, LPS 25 ng/mL, nigericin, IL-1β ELISA, 384-well; read-out: Activity.
`CC(C)c1nn(CC(=O)N[C@@H]2CCCN(C3CC3)C2)c(=O)cc1-c1cccc(F)c1` [Example 39, N-[(3R)-1-cyclopropylpiperidin-3-yl]-2-[4-(3-fluorophenyl)-6-oxo-3-propan-2-ylpyridazin-1-yl]acetamide]: the IC50 was found to be 0.49 µM.
The same measure, in the same setting: under `CC(C)c1nn(CC(=O)Nc2ncncc2F)c(=O)cc1-c1cc(F)cc(F)c1` [Example 42, 2-[4-(3,5-difluorophenyl)-6-oxo-3-propan-2-ylpyridazin-1-yl]-N-(5-fluoropyrimidin-4-yl)acetamide] stands 0.32 µM.
Still for that read-out and setting: under `CCN1CCC[C@@H](NC(=O)Cn2nc(C(C)C)c(-c3cc(F)cc(F)c3F)cc2=O)C1` [Example 32, N-[(3R)-1-ethylpiperidin-3-yl]-2-[6-oxo-3-propan-2-yl-4-(2,3,5-trifluorophenyl)pyridazin-1-yl]acetamide] stands 0.649 µM; under `O=C(Cn1nc(CC(F)(F)F)c(-c2cc(F)cc(F)c2)cc1=O)Nc1ncncc1F` [Example 50, 2-[4-(3,5-difluorophenyl)-6-oxo-3-(2,2,2-trifluoroethyl)pyridazin-1-yl]-N-(5-fluoropyrimidin-4-yl)acetamide], 1.64 µM.
The same measure, in the same setting: to `CC(CF)c1nn(CC(=O)Nc2ncc(F)cn2)c(=O)cc1-c1cc(F)cc(F)c1` (stereo not drawn) [Example 55, 2-[4-(3,5-difluorophenyl)-3-(1-fluoropropan-2-yl)-6-oxopyridazin-1-yl]-N-(5-fluoropyrimidin-2-yl)acetamide] belongs 1.06 µM.
As for `O=C(Cn1nc(C(F)F)c(-c2cc(F)cc(F)c2)cc1=O)Nc1ncc(F)cn1` [Example 53, 2-[3-(difluoromethyl)-4-(3,5-difluorophenyl)-6-oxopyridazin-1-yl]-N-(5-fluoropyrimidin-2-yl)acetamide], the IC50 was 2.77 µM.
Same read-out and setting: under `CC(C)c1nn(CC(=O)Nc2ncncc2F)c(=O)cc1-c1cccc2ccncc12` [Example 33] stands 3.21 µM.
As for `CC(C)c1nn(CC(=O)Nc2ncncc2F)c(=O)cc1-c1cc(F)cc(C2CC2(F)F)c1` (stereo not drawn) [Example 47, 2-[4-[3-(2,2-difluorocyclopropyl)-5-fluorophenyl]-6-oxo-3-propan-2-ylpyridazin-1-yl]-N-(5-fluoropyrimidin-4-yl)acetamide], the IC50 is 8.45 µM.
The same measure, in the same setting: under `CCN1CCC[C@@H](NC(=O)Cn2nc(C(C)C)c(-c3cccc4ccccc34)cc2=O)C1` [Example 29] stands 0.874 µM; under `CC(C)c1nn(CC(=O)N[C@H]2C[C@@](C)(O)C2)c(=O)cc1-c1cc(F)cc(F)c1` [Example 21, 2-[4-(3,5-difluorophenyl)-6-oxo-3-propan-2-ylpyridazin-1-yl]-N-(cis-3-hydroxy-3-methylcyclobutyl)acetamide], 0.902 µM; under `CC(C)c1nn(CC(=O)Nc2ncccc2F)c(=O)cc1-c1cccc(F)c1` [Example 41, 2-[4-(3-fluorophenyl)-6-oxo-3-propan-2-ylpyridazin-1-yl]-N-(3-fluoropyridin-2-yl)acetamide], 7.21 µM.
On the same count and under the same terms, to `CC(C)c1nn(CC(=O)Nc2ncncc2F)c(=O)c(C(F)F)c1-c1cccc(F)c1` [Example 37, 2-[5-(difluoromethyl)-4-(3-fluorophenyl)-6-oxo-3-propan-2-ylpyridazin-1-yl]-N-(5-fluoropyrimidin-4-yl)acetamide] belongs 30.1 µM; to `CC(C)c1nn(CC(=O)N[C@H]2C[C@@](C)(O)C2)c(=O)cc1-c1cc(F)ccc1F` [Example 24, 2-[4-(2,5-difluorophenyl)-6-oxo-3-propan-2-ylpyridazin-1-yl]-N-(cis-3-hydroxy-3-methylcyclobutyl)acetamide], 1.9 µM.
Same read-out and setting: under `CCN1CCC[C@@H](NC(=O)Cn2nc(C(C)C)c(-c3cc(F)cc(C4CC4)c3)cc2=O)C1` [Example 30, 2-[4-(3-cyclopropyl-5-fluorophenyl)-6-oxo-3-propan-2-ylpyridazin-1-yl]-N-[(3R)-1-ethylpiperidin-3-yl]acetamide] stands 1.3 µM.
Turning to `CCOc1cccc(-c2cc(=O)n(CC(=O)N[C@H]3C[C@@](C)(O)C3)nc2C(C)C)c1` [Example 28, 2-[4-(3-ethoxyphenyl)-6-oxo-3-propan-2-ylpyridazin-1-yl]-N-(cis-3-hydroxy-3-methylcyclobutyl)acetamide], the IC50 was found to be 8.47 µM.
On the same count and under the same terms, under `CCN1CCC[C@@H](NC(=O)Cn2nc(C3CCC3)c(-c3cccc(F)c3)cc2=O)C1` [Example 40, 2-[3-cyclobutyl-4-(3-fluorophenyl)-6-oxopyridazin-1-yl]-N-[(3R)-1-ethylpiperidin-3-yl]acetamide] stands 1.44 µM.
The same measure, in the same setting: under `Cc1ccc(F)c(-c2cc(=O)n(CC(=O)N[C@H]3C[C@@](C)(O)C3)nc2C(C)C)c1` [Example 23, 2-[4-(2-fluoro-5-methylphenyl)-6-oxo-3-propan-2-ylpyridazin-1-yl]-N-(cis-3-hydroxy-3-methylcyclobutyl)acetamide] stands 1.89 µM; under `Cc1ccccc1-c1cc(=O)n(CC(=O)N[C@H]2C[C@@](C)(O)C2)nc1C(C)C` [Example 26], 6.66 µM.
Same read-out and setting: to `CC(C)c1nn(CC(=O)Nc2ncc(F)cn2)c(=O)cc1-c1cncc(F)c1` [Example 54, 2-[4-(5-fluoropyridin-3-yl)-6-oxo-3-propan-2-ylpyridazin-1-yl]-N-(5-fluoropyrimidin-2-yl)acetamide] belongs 6.98 µM; to `CCc1c(-c2cccc(F)c2)c(C(C)C)nn(CC(=O)Nc2ncncc2F)c1=O` [Example 35, 2-[5-ethyl-4-(3-fluorophenyl)-6-oxo-3-propan-2-ylpyridazin-1-yl]-N-(5-fluoropyrimidin-4-yl)acetamide], 35.3 µM.
As for `CC(C)c1nn(C2(C(=O)Nc3ncccn3)CC2)c(=O)cc1-c1cc(F)cc(F)c1` [Example 51, 1-[4-(3,5-difluorophenyl)-3-isopropyl-6-oxo-pyridazin-1-yl]-N-pyrimidin-2-yl-cyclopropanecarboxamide], the IC50 came to 1.14 µM.
The same measure, in the same setting: under `CCOc1nn(CC(=O)N[C@H]2C[C@@](C)(O)C2)c(=O)cc1-c1ccccc1` [Example 34] stands 29.5 µM.
On the same count and under the same terms, to `CC(C)c1nn(CC(=O)N[C@H]2C[C@@](C)(O)C2)c(=O)cc1-c1cccc(C2CC2)c1` [Example 27, 2-[4-(3-cyclopropylphenyl)-6-oxo-3-propan-2-ylpyridazin-1-yl]-N-(cis-3-hydroxy-3-methylcyclobutyl)acetamide] belongs 1.91 µM; to `CCN1CCC[C@@H](NC(=O)Cn2nc(C(C)C)c(-c3cccc(C4CCC4)c3)cc2=O)C1` [Example 31, 2-[4-(3-cyclobutylphenyl)-6-oxo-3-propan-2-ylpyridazin-1-yl]-N-[(3R)-1-ethylpiperidin-3-yl]acetamide], 6.98 µM; to `O=C(Cn1nc(C2CCC2)c(-c2cc(F)cc(F)c2)cc1=O)Nc1ncc(F)cn1` [Example 56, 2-[3-cyclobutyl-4-(3,5-difluorophenyl)-6-oxopyridazin-1-yl]-N-(5-fluoropyrimidin-2-yl)acetamide], 0.713 µM.
Still for that read-out and setting: under `CCc1nn(CC(=O)Nc2ncncc2F)c(=O)c(C)c1-c1cccc(F)c1` [Example 52, 2-[3-ethyl-4-(3-fluorophenyl)-5-methyl-6-oxopyridazin-1-yl]-N-(5-fluoropyrimidin-4-yl)acetamide] stands 4.36 µM.

(Values after patent US20230348437A1, “COMPOUNDS, COMPOSITIONS AND METHODS” (Denali Therapeutics Inc., priority 2020, published 2023).)
